# Results as given in patent US11696916B2, “Carboxamide-pyrimidine derivatives as SHP2 antagonists” (Merck Patent GmbH, priority 2019, dated 2023).
# Legend:
# [1] = target: Full length SHP2 protein (Recombinant Human SHP-2) (Homo sapiens (Human), UniProt Q06124); assay: SHP2 biochemical assay (DiFMUP, activating peptide IRS1_2pY); conditions: DiFMUP substrate, 60 min RT
# Method: The inhibition of SHP2 by compounds of the invention was monitored using the surrogate substrate DiFMUP after protein activation by a peptide bearing two appropriately spaced phosphotyrosine. […] The generation of the DiFMU product by activated SHP2 was monitored through Fluorescence measurement with a PerkinElmer Envision reader. The inhibitor dose response curves were analyzed with Genedata Screener.
# [2] = tested on: pERK level in KYSE520 cells; assay: p-Erk cellular assay in KYSE520 (Mesoscale); type: cell-based; conditions: Homo sapiens, KYSE-520, 2 h, 2 h compound incubation, read-out: pERK1/2 in KYSE520 IC50
# Method: The effect of SHP2 inhibitors on pERK level was assessed using phospho-specific antibody using Mesoscale quantification platform. For measuring change in pERK levels using mesoscale, 30,000 cells of MDA MB468 and KYSE520 cells were plated in 96-well tissue culture treated plate in 175 ul volume of media. After an overnight incubation at 37° C., various SHP2 inhibitors were added in different concentration to each well maintaining duplicate wells across plates and incubated with compounds for 2 h at 37° C. followed by a wash with ice cold PBS buffer. The cells were then lysed in lysis buffer and processed and analyzed for p-ERK/ERK as per manufacturer's instructions (Mesoscale discovery, cat No. K15107D-3).
# [3] = Pharmacokinetics in mouse; type: in vivo; conditions: for Cmax Normalized to 1 mgk / AUC (normalized 1 mpk): female CD1 mice; for Cmax Normalized to 1 mgk: normalized to 1 mg/kg; for AUC (normalized 1 mpk): normalized to 1 mpk; for Exposure compared to SHP-099: mouse PK
# Method: Female CD1 mice (N=3) received a single oral (gavage) or a single intravenous (bolus) injection of compound. […] Consecutive blood samples were taken sub-lingually under isofluorane inhalation from animals after 0.083 (IV), 0.25, 0.5, 1, 2, 4, 6 and 24 h and were further processed to obtain plasma. Samples were protein precipitated and analyzed by LC/MS/MS.
# Full length SHP2 protein (Recombinant Human SHP-2), sequence (Q06124 2-593): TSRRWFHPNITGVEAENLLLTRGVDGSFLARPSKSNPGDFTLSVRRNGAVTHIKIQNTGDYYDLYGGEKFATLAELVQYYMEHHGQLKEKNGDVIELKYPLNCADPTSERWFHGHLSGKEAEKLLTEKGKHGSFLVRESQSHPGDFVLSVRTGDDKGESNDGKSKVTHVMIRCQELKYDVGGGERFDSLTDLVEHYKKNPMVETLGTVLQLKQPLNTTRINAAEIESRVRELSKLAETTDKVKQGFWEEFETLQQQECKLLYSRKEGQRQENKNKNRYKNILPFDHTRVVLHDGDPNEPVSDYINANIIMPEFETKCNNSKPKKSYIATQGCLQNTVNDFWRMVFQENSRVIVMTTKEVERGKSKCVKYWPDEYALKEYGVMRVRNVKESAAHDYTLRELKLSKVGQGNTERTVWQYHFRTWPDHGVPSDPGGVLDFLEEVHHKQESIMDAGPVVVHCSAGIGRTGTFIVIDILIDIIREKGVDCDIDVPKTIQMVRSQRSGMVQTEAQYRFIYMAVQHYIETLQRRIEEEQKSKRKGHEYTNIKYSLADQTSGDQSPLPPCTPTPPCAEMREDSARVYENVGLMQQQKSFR
Compound,IC50 [1] [nM],IC50 [2] [nM],also measured
"C[C@@H]1OCC2(CCN(c3nc(N)c(-c4cccc(Cl)c4Cl)c(C(N)=O)n3)CC2)[C@@H]1N (atropisomer, axis not shown; (M)) [Compound 67, (5M)-6-amino-2-[(3S,4S)-4-amino-3-methyl-2-oxa-8-azaspiro[4.5]decan-8-yl]-5-(2,3-dichlorophenyl)pyrimidine-4-carboxamide]",16000,,
"NC(=O)c1nc(N2CCC3(CC2)Oc2ncccc2[C@@H]3N)nc(N)c1-c1cccc(Cl)c1Cl (atropisomer, axis not shown; (M)) [Compound 130, (4M)-6-amino-2-[(3R)-3-amino-3H-spiro[furo[2,3-b]pyridine-2,4-piperidin]-1-yl]-5-(2,3-dichlorophenyl)pyrimidine-4-carboxamide]",,2240,
"C[C@@H]1OCC2(CCN(c3nc(N)c(-c4cccc(Cl)c4Cl)c(C(N)=O)n3)CC2)[C@@H]1N (atropisomer, axis not shown; (P)) [Compound 66, (5P)-6-amino-2-[(3S,4S)-4-amino-3-methyl-2-oxa-8-azaspiro[4.5]decan-8-yl]-5-(2,3-dichlorophenyl)pyrimidine-4-carboxamide]",52,,
"Cc1nc(N2CCC3(CC2)CO[C@@H](C)[C@H]3N)nc(C(N)=O)c1-c1cccc(Cl)c1Cl (single isomer, unassigned) [Compound 95]",,,Cmax Normalized to 1 mgk [3]: 150 ng/mL; AUC (normalized 1 mpk) [3]: 1214 ng·h/mL; Exposure compared to SHP-099 [3]: higher exposure
"NC(=O)c1nc(N2CCC3(CC2)Oc2ncccc2C3N)nc(N)c1-c1cccc(Cl)c1Cl (single isomer, unassigned) [Compound 128]",,161,
"CC1(N)CCN(c2nc(N)c(-c3cccc(Cl)c3Cl)c(C(N)=O)n2)CC1 [Compound 27, (4P)-6-amino-2-(4-amino-4-methylpiperidin-1-yl)-5-(2,3-dichlorophenyl)pyrimidine-4-carboxamide]",,,Cmax Normalized to 1 mgk [3]: 48 ng/mL; AUC (normalized 1 mpk) [3]: 230 ng·h/mL; Exposure compared to SHP-099 [3]: higher exposure
"CC1(N)CCN(c2cnc(-c3cccc(Cl)c3Cl)c(N)n2)CC1 [SHP-099, SHP099, reference compound]",,,Cmax Normalized to 1 mgk [3]: 48 ng/mL; AUC (normalized 1 mpk) [3]: 129 ng·h/mL

# More lines, main results first:
IC50 [1] [nM],IC50 [2] [nM],Compound,also measured
62,,"Cc1nc(N2CCC3(CC2)CC(F)(F)C[C@H]3N)nc(C(N)=O)c1-c1cccc(Cl)c1Cl (atropisomer, axis not shown; (M)) [Compound 96, (5M)-2-[(1R)-1-amino-3,3-difluoro-8-azaspiro[4.5]decan-8-yl]-5-(2,3-dichlorophenyl)-6-methylpyrimidine-4-carboxamide]",
,114,"NC(=O)c1nc(N2CCC3(CC2)Cc2ccccc2[C@H]3N)nc(N)c1-c1cccc(Cl)c1Cl (atropisomer, axis not shown; (M)) [Compound 118, (5M)-6-amino-2-[(1S)-1-amino-1,3-dihydrospiro[indene-2,4′-piperidin]-1′-yl]-5-(2,3-dichlorophenyl)pyrimidine-4-carboxamide]",
,21,"Cc1nc(N2CCC3(CC2)Cc2ccccc2[C@H]3N)nc(C(N)=O)c1-c1cccc(Cl)c1Cl (atropisomer, axis not shown; (M)) [Compound 119, (M)-2-[(1S)-1-amino-1,3-dihydrospiro[indene-2,4′-piperidin]-1′-yl]-5-(2,3-dichlorophenyl)-6-methylpyrimidine-4-carboxamide]",
4400,,"Cc1nc(N2CCC3(CC2)CC(F)(F)C[C@H]3N)nc(C(N)=O)c1-c1cccc(Cl)c1Cl (atropisomer, axis not shown; (P)) [Compound 97, (5P)-2-[(1R)-1-amino-3,3-difluoro-8-azaspiro[4.5]decan-8-yl]-5-(2,3-dichlorophenyl)-6-methylpyrimidine-4-carboxamide]",
,1,"NC(=O)c1nc(N2CCC3(CC2)Cc2ccccc2[C@H]3N)nc(N)c1-c1cccc(Cl)c1Cl (single isomer, unassigned) [Compound 117]",
,268,"Cc1nc(N2CCC3(CC2)Oc2ncccc2[C@H]3N)nc(C(N)=O)c1-c1cccc(Cl)c1Cl [Compound 124, (4M)-2-[(3R)-3-amino-3H-spiro[furo[2,3-b]pyridine-2,4′-piperidin]-1′-yl]-5-(2,3-dichlorophenyl)-6-methylpyrimidine-4-carboxamide]",
